Measurements taken from ChEMBL document CHEMBL4840355, “Antitumor and toxicity study of mitochondria-targeted triptolide derivatives using triphenylphosphine (TPP+) as a carrier” (Bioorg Med Chem, 2021).
Calls of active or inactive are those of the source. The calls are words filed in the database; no cut-off is given here.

Experiments:
HepG2 [1] = assay: Induction of cell cycle arrest in human HepG2 cells assessed as accumulation of cells in G0/G1 phase at 50 nM measured after 48 hrs by RNase A/PI staining based flow cytometry analysis (Rvb= 56.42+/- 0.27%); assay type: functional
[2] = Drug uptake in mitochondria of human HepG2 cells at 10 uM incubated for 7 hrs by RP-HPLC method relative to TP; assay type: ADME; conditions: hepg2, 7 h
HepG2 [3] = assay: Induction of apoptosis in human HepG2 cells assessed as necrotic cells at 100 nM measured after 48 hrs by Annexin V-FITC/PI double staining based flow cytometry analysis (Rvb= 0.13%); assay type: functional
HepG2 [4] = assay: Induction of mitochondrial membrane potential loss in human HepG2 cells assessed as proportion of cells with hyperpolarized mitochondria at 75 nM measured after 48 hrs by JC-1 staining based flow cytometry analysis (Rvb= 80.9%); assay type: functional
HepG2 [5] = assay: Induction of apoptosis in human HepG2 cells assessed as late apoptotic cells at 150 nM measured after 48 hrs by Annexin V-FITC/PI double staining based flow cytometry analysis (Rvb= 2.89%); assay type: functional
[6] = Toxicity in zebrafish AB assessed as mortality at 0.05 to 2 uM measured at 72 hrs postfertilization; parameters: species or system Danio rerio; conditions: in vivo, dose 0.05-2 µM
HepG2 [7] = assay: Induction of apoptosis in human HepG2 cells assessed as live cells at 100 nM measured after 48 hrs by Annexin V-FITC/PI double staining based flow cytometry analysis (Rvb= 94.8%); assay type: functional
L02 = assay: Cytotoxicity against human HL7702 cells assessed as inhibition of cell proliferation measured after 48 hrs by MTT assay; assay type: cell-based; conditions: L02, 48 h
HepG2 [8] = assay: Cytotoxicity against human HepG2 cells assessed as increase in release of LDH measured after 48 hrs by LDH assay; assay type: functional, cell-based; conditions: dose 100-200 nM
MCF7 = assay: Cytotoxicity against human MCF7 cells assessed as inhibition of cell proliferation measured after 48 hrs by MTT assay; assay type: functional, cell-based; conditions: MCF7, 48 h
HepG2 [9] = assay: Induction of apoptosis in human HepG2 cells assessed as live cells at 75 nM measured after 48 hrs by Annexin V-FITC/PI double staining based flow cytometry analysis (Rvb= 94.8%); assay type: functional
HepG2 [10] = assay: Induction of mitochondrial membrane potential loss in human HepG2 cells assessed as proportion of cells with depolarized mitochondria at 100 nM measured after 48 hrs by JC-1 staining based flow cytometry analysis (Rvb= 9.1%); assay type: functional
HepG2 [11] = assay: Induction of mitochondrial membrane potential loss in human HepG2 cells assessed as proportion of cells with depolarized mitochondria at 50 nM measured after 48 hrs by JC-1 staining based flow cytometry analysis (Rvb= 9.1%); assay type: functional
HepG2 [12] = assay: Antitumor activity against human HepG2 cells xenografted in zebra fish AB assessed as tumor growth inhibition at 0.5 to 1 uM measured after 48 hrs by fluorescence microscopic analysis; assay type: functional, cell-based; conditions: dose 0.5-1 µM
[13] = Toxicity in zebrafish AB assessed as body length at 0.05 to 2 uM measured at 72 hrs postfertilization; parameters: species or system Danio rerio; conditions: in vivo, dose 0.05-2 µM
NCI-H1975 = assay: Cytotoxicity against human NCI-H1975 cells assessed as inhibition of cell proliferation measured after 48 hrs by MTT assay; assay type: functional, cell-based; conditions: NCI-H1975, 48 h
[14] = Cytotoxicity against human HBE cells assessed as inhibition of cell proliferation measured after 48 hrs by MTT assay; assay type: cell-based
NCI-H1299 = assay: Cytotoxicity against human NCI-H1299 cells assessed as inhibition of cell proliferation measured after 48 hrs by MTT assay; assay type: functional, cell-based; conditions: NCI-H1299, 48 h
HepG2 [15] = assay: Induction of mitochondrial membrane potential loss in human HepG2 cells assessed as proportion of cells with depolarized mitochondria at 150 nM measured after 48 hrs by JC-1 staining based flow cytometry analysis (Rvb= 9.1%); assay type: functional
HepG2 [16] = assay: Induction of apoptosis in human HepG2 cells assessed as early apoptotic cells at 75 nM measured after 48 hrs by Annexin V-FITC/PI double staining based flow cytometry analysis (Rvb= 2.16%); assay type: functional
[17] = Toxicity in zebrafish AB assessed as hatching rate at <12 uM measured at 72 hrs postfertilization; parameters: species or system Danio rerio; conditions: in vivo
[18] = Toxicity in zebrafish AB assessed as malformation rate at <12 uM measured at 72 hrs postfertilization; parameters: species or system Danio rerio; conditions: in vivo
HepG2 [19] = assay: Induction of mitochondrial membrane potential loss in human HepG2 cells assessed as proportion of cells with hyperpolarized mitochondria at 200 nM measured after 48 hrs by JC-1 staining based flow cytometry analysis (Rvb= 80.9%); assay type: functional
HepG2 [20] = assay: Induction of mitochondrial membrane potential loss in human HepG2 cells assessed as proportion of cells with hyperpolarized mitochondria at 100 nM measured after 48 hrs by JC-1 staining based flow cytometry analysis (Rvb= 80.9%); assay type: functional
HepG2 [21] = assay: Induction of apoptosis in human HepG2 cells assessed as early apoptotic cells at 150 nM measured after 48 hrs by Annexin V-FITC/PI double staining based flow cytometry analysis (Rvb= 2.16%); assay type: functional
[22] = Toxicity in zebrafish AB assessed as pericardial edema at 12 uM measured at 72 hrs postfertilization; parameters: species or system Danio rerio; conditions: in vivo
HepG2 [23] = assay: Induction of apoptosis in human HepG2 cells assessed as late apoptotic cells at 100 nM measured after 48 hrs by Annexin V-FITC/PI double staining based flow cytometry analysis (Rvb= 2.89%); assay type: functional
PC-3 = assay: Cytotoxicity against human PC-3 cells assessed as inhibition of cell proliferation measured after 48 hrs by MTT assay; assay type: functional, cell-based; conditions: PC-3, 48 h
HepG2 [24] = assay: Induction of ROS generation in human HepG2 cells assessed as increase in ROS level at 50 to 150 nM measured after 48 hrs by DCFH-DA staining based flow cytometry analysis; assay type: functional, cell-based; conditions: dose 50-150 nM
HepG2 [25] = assay: Cytotoxicity against human HepG2 cells assessed as inhibition of cell proliferation measured after 48 hrs by MTT assay; assay type: functional, cell-based; conditions: HepG2, 48 h
HepG2 [26] = assay: Induction of mitochondrial membrane potential loss in human HepG2 cells assessed as proportion of cells with depolarized mitochondria at 200 nM measured after 48 hrs by JC-1 staining based flow cytometry analysis (Rvb= 9.1%); assay type: functional
[27] = Hepatotoxicity in transgenic zebrafish Tg(1-fabp:EGFP) assessed as liver damage by measuring decrease in fluorescence intensity and area at 0.05 to 0.5 uM measured after 96 hrs; assay type: toxicity, tissue-based, Danio rerio; conditions: in vivo, dose 0.05-0.5 µM
HepG2 [28] = assay: Induction of apoptosis in human HepG2 cells assessed as late apoptotic cells at 75 nM measured after 48 hrs by Annexin V-FITC/PI double staining based flow cytometry analysis (Rvb= 2.89%); assay type: functional
HepG2 [29] = assay: Antitumor activity against human HepG2 cells xenografted in zebra fish AB assessed as tumor growth inhibition at 1 uM measured after 48 hrs by fluorescence microscopic analysis; assay type: functional, cell-based
HepG2 [30] = assay: Induction of apoptosis in human HepG2 cells assessed as live cells at 50 nM measured after 48 hrs by Annexin V-FITC/PI double staining based flow cytometry analysis (Rvb= 94.8%); assay type: functional
HepG2 [31] = assay: Induction of apoptosis in human HepG2 cells assessed as live cells at 150 nM measured after 48 hrs by Annexin V-FITC/PI double staining based flow cytometry analysis (Rvb= 94.8%); assay type: functional

With `CC(C)[C@]12O[C@H]1[C@@H]1O[C@]13[C@]1(O[C@H]1C[C@H]1C4=C(CC[C@@]13C)C(=O)OC4)[C@@H]2OC(=O)CCCCC[P+](c1ccccc1)(c1ccccc1)c1ccccc1.[Br-]` the Activity (HepG2 [1]) was 72.22%, the “fold change (FC)” value [2] was 3 and the Activity (HepG2 [3]) was 0.18%. For the same molecule, the Activity (HepG2 [4]) was 64.4%, the Activity (HepG2 [5]) was 16.6% and the Activity [6] was “Non-Toxic”. The Activity (HepG2 [7]) was 59.9%, the IC50 (L02) was 334 nM and the Activity (HepG2 [8]) was “Dose-Dependent Effect”. It also gave an IC50 (MCF7) of 238 nM, an Activity (HepG2 [9]) of 76.8% and an Activity (HepG2 [10]) of 45.6%. For the same molecule, the Activity (HepG2 [11]) was 25.3%, the Activity (HepG2 [12]) was “Active” and the Activity [13] was “Non-Toxic”. It also gave an IC50 (NCI-H1975) of 88 nM, an IC50 [14] of 210 nM and an IC50 (NCI-H1299) of 254 nM. For the same molecule, the Activity (HepG2 [15]) was 48.9%, the Activity (HepG2 [16]) was 15.5% and the Activity [17] was “Non-Toxic”. The Activity [18] was “Non-Toxic”, the Activity (HepG2 [19]) was 44.3% and the Activity (HepG2 [20]) was 54.4%. The Activity (HepG2 [21]) was 33.7%, the Activity [22] was “Toxic” and the Activity (HepG2 [23]) was 12.1%. The IC50 (PC-3) was 186 nM, the Activity (HepG2 [24]) was “Active” and the IC50 (HepG2 [25]) was 67 nM. The Activity (HepG2 [26]) was 55.7%, the Activity [27] was “Non-Toxic” and the Activity (HepG2 [28]) was 7.47%. For the same molecule, the Activity (HepG2 [29]) was “Active”, the Activity (HepG2 [30]) was 91.2% and the Activity (HepG2 [31]) was 49.6%.
